Results taken from patent publication US20140322193A1, “Therapies for Disorders of the Cornea and Conjunctiva” (priority 2011, published 2014).
“Also recorded” adds a separate entry of the source.

Legend:
[1] = test system: CBA/J mice; experiment: Mouse BTX-B dry eye model, corneal fluorescein staining (corneal ulceration); type: in vivo; details: for Corneal fluorescein staining, MEAN, DAY 7: 7 days after BTX-B injection; for Corneal fluorescein staining, MEAN, DAY 7 / Corneal fluorescein staining, MEAN, DAY 14: eye drops twice daily in Refresh Celluvisc (A-438079 20 μM, BBG 20 μM, oxATP 300 μM), grade 0 to 4 scale; for Corneal fluorescein staining, MEAN, DAY 14: 14 days after BTX-B injection; for Corneal fluorescein staining, MEAN, DAY 0: day 0, prior to BTX-B injection (baseline), grade on 0 to 4 scale of Table 2; for Effect on corneal fluorescein staining (in words): days 7 and 14, chosen dose, b.i.d. eye drops
[2] = target: T1, mouse P2X7 receptor (Mus musculus, UniProt Q9Z1M0); details: British Journal of Pharmacology 2009 157:1203; cited from earlier work
T1 sequence (Q9Z1M0 1-595): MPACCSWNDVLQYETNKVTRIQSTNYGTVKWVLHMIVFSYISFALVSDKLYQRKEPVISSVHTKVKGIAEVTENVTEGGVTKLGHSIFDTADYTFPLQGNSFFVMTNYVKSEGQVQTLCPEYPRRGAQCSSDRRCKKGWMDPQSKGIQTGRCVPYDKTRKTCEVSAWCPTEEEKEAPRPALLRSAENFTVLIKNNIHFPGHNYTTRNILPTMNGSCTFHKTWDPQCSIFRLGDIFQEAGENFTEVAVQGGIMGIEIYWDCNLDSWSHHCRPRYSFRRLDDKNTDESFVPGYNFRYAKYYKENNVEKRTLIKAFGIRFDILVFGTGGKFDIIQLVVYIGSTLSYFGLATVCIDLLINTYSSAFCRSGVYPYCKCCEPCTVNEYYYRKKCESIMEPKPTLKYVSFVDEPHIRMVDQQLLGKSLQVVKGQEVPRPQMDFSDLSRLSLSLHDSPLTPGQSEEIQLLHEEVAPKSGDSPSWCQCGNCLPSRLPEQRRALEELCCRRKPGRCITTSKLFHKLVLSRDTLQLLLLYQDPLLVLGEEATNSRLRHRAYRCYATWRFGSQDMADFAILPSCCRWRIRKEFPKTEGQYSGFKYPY

[3] = Preservation of 1 μM BBG ophthalmic composition in containers at 60° C. for 2 days; type: physicochemical; details: 1 μM BBG in BSS, PET, polypropylene, polyethylene and glass containers
Method: BSS Sterile Irrigating Solution is obtained from Alcon Laboratories, Ft. Worth, Tex. BBG is obtained from Sigma Aldrich, St. Louis, Mo. With moderate stirring in a homomixer, 856 mg of BBG is added to 1 liter of BSS at room temperature. The mixture is then stirred until the BBG is completely in solution. This solution is a 1 mM stock solution. One ml of the stock solution is then added to one liter of BSS to yield the ophthalmic composition, which is 1 μM BBG in BSS. The ophthalmic composition is filtered through a membrane filter (0.45 μm pore diameter, Millipore), filled in a 15 mL polyethylene terephthalate eye drop container, a polypropylene container, a polyethylene container, and a glass container and preserved at 60° C. for 2 days. The amount of BBG from each container is measured before and after preservation.

| SMILES | Corneal fluorescein staining, MEAN, DAY 7 [1] | Corneal fluorescein staining, MEAN, DAY 14 [1] | Corneal fluorescein staining, MEAN, DAY 0 [1] | Effect on corneal fluorescein staining (in words) [1] | IC50 [2] [nM] | Degradation of active ingredient after preservation [3] |
| --- | --- | --- | --- | --- | --- | --- |
| Clc1cccc(-c2nnnn2Cc2cccnc2)c1Cl [A-438079] | 1.70 | 2.70 | 0.00 | did not attenuate fluorescein staining |  |  |
| COc1ccc(CC(=O)NC(N=C(NC#N)Nc2cccc3ncccc23)C(C)(C)C)cc1OC (centres unmarked) [A-740003] |  |  |  |  | ~1000 |  |
| CCOc1ccc(Nc2ccc(/C(=C3C=C/C(=[N+](/CC)Cc4cccc(S(=O)(=O)[O-])c4)C=C/3C)c3ccc(N(CC)Cc4cccc(S(=O)(=O)[O-])c4)cc3C)cc2)cc1.[Na+] [BBG, Coomassie Brilliant Blue G] | 1.50 | 2.00 | 0.00 | did not attenuate fluorescein staining |  | little degradation |
| Nc1ncnc2c1ncn2[C@@H](C=O)O[C@@H](C=O)COP(=O)(O)OP(=O)(O)OP(=O)(O)O [oxATP, periodate oxidized ATP] | 0.00 | 0.00 | 0.00 | completely prevented the fluorescein staining; also recorded: remarkably effective in preventing pathology |  |  |
